Experimental findings from patent US20080199855A1, “Identification And Characterization Of A Subset of Glioblastomas Sensitive To Treatment With Imatinib” (priority 2004, published 2008) are described below.

One assay concerns GBM culture 7. As to the kind of experiment: cells. The settings on record: Homo sapiens, 96 h, read-out: growth inhibition (% reduction of increase in cell number).
Another assay concerns GBM culture 35. As to the kind of experiment: cells. The note with it: Homo sapiens, 96 h, read-out: growth inhibition (% reduction of increase in cell number).
The subject of a further assay is Akt. As to the kind of experiment: Compound I-induced change in Akt phosphorylation in GBM cultures (immunoblotting). In kind it is cell-based, human. The note with it: 10 GBM cultures; 1 μM compound I for 1 h; 10% FCS.
The test system of another assay is GBM culture 21. As to the kind of experiment: cells. The settings on record: Homo sapiens, 96 h, read-out: growth inhibition (% reduction of increase in cell number).
The next assay relates to GBM culture 5. The experiment in a line: cells. The note with it: Homo sapiens, 96 h, read-out: growth inhibition (% reduction of increase in cell number).
Another assay relates to GBM culture 9. As to the kind of experiment: cells. The settings on record: Homo sapiens, 96 h, read-out: growth inhibition (% reduction of increase in cell number).
For the next assay, the system named is GBM culture 8. As to the kind of experiment: cells. The note with it: Homo sapiens, 96 h, read-out: growth inhibition (% reduction of increase in cell number).
A further assay relates to GBM culture 13. As to the kind of experiment: Growth inhibition induced by compound I, GBM culture 13. The note with it: Homo sapiens, 96 h, read-out: growth inhibition (% reduction of increase in cell number).
Another assay concerns GBM culture 11. As to the kind of experiment: cells. The settings on record: Homo sapiens, 96 h, read-out: growth inhibition (% reduction of increase in cell number).
For a further assay, the system named is GBM culture 6. The experiment in a line: cells. The settings on record: Homo sapiens, 96 h, read-out: growth inhibition (% reduction of increase in cell number).
The next assay concerns GBM culture 45. As to the kind of experiment: cells. The settings on record: Homo sapiens, 96 h, read-out: growth inhibition (% reduction of increase in cell number).
For the next assay, the system named is GBM culture 38. As to the kind of experiment: cells. The note with it: Homo sapiens, 96 h, read-out: growth inhibition (% reduction of increase in cell number).
Another assay deals with ERK. The experiment in a line: Compound I-induced change in ERK phosphorylation in GBM cultures (immunoblotting). The settings on record: 10 GBM cultures; 1 μM compound I for 1 h; 10% FCS. The assay is classed as cell-based, human.
The test system of a further assay is GBM culture 34. The experiment in a line: cells. The settings on record: Homo sapiens, 96 h, read-out: growth inhibition (% reduction of increase in cell number).
A further assay has as its system GBM culture 31. The experiment in a line: cells. The note with it: Homo sapiens, 96 h, read-out: growth inhibition (% reduction of increase in cell number).
In another assay the test system is GBM culture 27. As to the kind of experiment: cells. The note with it: Homo sapiens, 96 h, read-out: growth inhibition (% reduction of increase in cell number).
The next assay deals with GBM culture 18. The experiment in a line: cells. The note with it: Homo sapiens, 96 h, read-out: growth inhibition (% reduction of increase in cell number).
The next assay deals with GBM culture 30. The experiment in a line: cells. The settings on record: Homo sapiens, 96 h, read-out: growth inhibition (% reduction of increase in cell number).

Where only a bound is given, the exact number is not on record here.

Experimental for Akt: (§1) Glioblastoma cell cultures were confluently plated in 12-well plate wells (Falcon). […] Samples, with normalized protein content, were subjected to SDS-PAGE using 12% gels. Control lysates from un-stimulated and PDGF-BB-stimulated PAE/Rβ cells were loaded on each gel. Samples were electrophoretically transferred to Hydrobond-C-Extra filters (Amersham Life Science). For detection of phosphorylated forms of ERK and Akt, filters were blocked for 1 h in Tris buffered saline pH 7.6 (TBS), 0.137 M NaCl and 0.0035 M Tris-HCl, containing 5% BSA, and incubated over night with 1 μg/ml anti phospho-p44/42 MAPK Thr202/Tyr204 (Cell Signaling Technology) or 1 μg/ml anti phospho-Akt Ser473 (Cell Signaling Technology) in TBS with 0.001% Tween-20 (TTBS). After three 10 min washes in TTBS, the filters were incubated for 1 h with horseradish peroxidase coupled sheep anti-rabbit antibody (Amersham Life Science) diluted 1:25000, and washed three times 10 min in TTBS. The antigens were detected using the Lumi-Light plus western blotting substrate (Roche) according to the manufacturer's instruction with an Intelligent Darkbox II digital scanner (FUJIFILM). […] Values were quantified by using the AIDA software version 3.10.039 (FUJIFILM). The relative expression and phosphorylation of ERK and Akt in the different GBM cultures, was determined by using the reference samples from the PAE/Rβ cells.
Experimental for ERK: as §1

As usually defined, the inhibition is the change of the read-out against control, counted positive when it falls. Turning to `Cc1ccc(NC(=O)c2ccc(CN3CCN(C)CC3)cc2)cc1Nc1nccc(-c2cccnc2)n1` [compound I], the inhibition at 1 µM was over 40% in the assay with GBM culture 7; under 15% in the assay with GBM culture 35; under 15% in the assay with GBM culture 21; under 15% with GBM culture 5; over 40% in the assay with GBM culture 9; 20 to 40% with GBM culture 8. In addition, the inhibition at 1 µM was 20 to 40% with GBM culture 13; over 40% in the assay with GBM culture 11; over 40% in the assay on GBM culture 6; over 40% with GBM culture 45; under 15% in the assay with GBM culture 38; under 15% in the assay on GBM culture 34. In addition, the inhibition at 1 µM in the assay with GBM culture 31 was over 40%; in the assay on GBM culture 27, 20 to 40%; in the assay on GBM culture 18, under 15%; in the assay with GBM culture 30, under 15%. In the assay with Akt, the “compound I-induced change in specific phosphorylation of Akt” value is “only moderate changes”. Moreover, the “compound I-induced change in specific phosphorylation of ERK” value in the assay on ERK is recorded as “only moderate changes”.
